Columns and labels:
[1] = biological target: T1, dihydropyrimidine dehydrogenase (DPD) (Homo sapiens, UniProt Q12882); test: Low concentrations of gimeracil in 5-FU spiked blood, plasma 5-FU initial and after 24 hr; assay type: biochemical; settings: for 5-FU concentration, Initial / 5-FU concentration, 24 hr: blood spiked 500 ng/mL 5-FU; for 5-FU concentration, Initial: after plasma collection; for 5-FU concentration, 24 hr: plasma 24 hours at room temperature
T1 construct: from tissue; host or cells: donor whole blood (K2EDTA), plasma separated from it, and WBC/buffy coat
T1 sequence (Q12882 4-1025): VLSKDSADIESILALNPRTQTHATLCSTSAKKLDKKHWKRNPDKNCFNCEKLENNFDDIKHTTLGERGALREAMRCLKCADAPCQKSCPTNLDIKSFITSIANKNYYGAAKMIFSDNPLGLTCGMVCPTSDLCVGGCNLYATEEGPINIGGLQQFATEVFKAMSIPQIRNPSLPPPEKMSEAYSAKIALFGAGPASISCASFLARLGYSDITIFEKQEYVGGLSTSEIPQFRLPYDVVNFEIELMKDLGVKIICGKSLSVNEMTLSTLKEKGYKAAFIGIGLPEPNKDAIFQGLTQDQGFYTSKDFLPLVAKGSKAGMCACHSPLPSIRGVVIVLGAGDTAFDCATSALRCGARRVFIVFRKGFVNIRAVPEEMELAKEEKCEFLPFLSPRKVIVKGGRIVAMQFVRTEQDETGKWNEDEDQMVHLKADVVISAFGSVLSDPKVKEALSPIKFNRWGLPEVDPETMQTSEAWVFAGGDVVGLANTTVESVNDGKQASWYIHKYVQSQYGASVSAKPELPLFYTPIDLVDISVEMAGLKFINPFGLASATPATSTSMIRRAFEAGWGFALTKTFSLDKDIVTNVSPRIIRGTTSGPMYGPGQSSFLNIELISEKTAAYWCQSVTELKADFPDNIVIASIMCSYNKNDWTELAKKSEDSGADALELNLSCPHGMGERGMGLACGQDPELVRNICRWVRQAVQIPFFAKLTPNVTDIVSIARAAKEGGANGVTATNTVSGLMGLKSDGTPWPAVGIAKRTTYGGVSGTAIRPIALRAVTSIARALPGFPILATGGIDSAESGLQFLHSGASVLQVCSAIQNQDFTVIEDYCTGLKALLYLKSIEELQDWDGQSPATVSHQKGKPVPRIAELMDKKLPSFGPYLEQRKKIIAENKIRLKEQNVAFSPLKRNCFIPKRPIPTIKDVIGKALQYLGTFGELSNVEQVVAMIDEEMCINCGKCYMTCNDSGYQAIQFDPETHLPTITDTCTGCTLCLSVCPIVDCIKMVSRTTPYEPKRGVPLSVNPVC
Method: (§1) In the following illustrative examples, 5-FU was measured using an antibody-based agglutination assay on the Olympus AU680 Analyzer using an antibody disclosed in U.S. Pat. No. 7,205,116. Specifically, the concentration of 5-FU in a sample is determined based on the absorbance of a sample, which is determined by the amount of aggregation by the nanoparticles. The system requires two reagents, which when mixed in the absence of free 5-FU will form large aggregates of nanoparticles and scatter light to result in a higher absorption value. In the presence of free 5-FU, the agglutination reaction becomes somewhat inhibited and scattering of light is less, causing a lower absorption value. The instrument is calibrated twice monthly, and a curve is generated (Absorbance vs. 5-FU concentration). Absorbance values from individual samples are compared against this curve to determine concentration.
(§2) Generally in the agglutination assay, 95 μl of a buffer containing 5-FU-labeled amino-dextran is pipetted to a cuvette, followed by 7 μL of a filtered plasma sample. The sample and reagent are mixed and then incubated for about 3.5 minutes. 95 μl of 5-FU antibody-conjugated nanoparticles is pipetted into the cuvette and mixed. The complete reaction incubates for about 6.2 minutes. A series of 27 measurements at 600 nm are taken at regular intervals by the AU680 analyzer throughout this process, and 5-FU concentration is calculated using the measurements from two specific time points.
Four tubes of blood (spray-on K2EDTA tubes, 10 mL) was drawn from each of five donors, and gently inverted several times to mix anti-coagulant. Blood was pooled by donor into conical tubes. An aliquot of each donor's blood was transferred to a clean tube. A calculated volume of 5-FU stock (at 200 ng/μL) was added to each blood sample to achieve a final concentration of 500 ng/mL 5-FU, and tubes were inverted to mix. Spiked blood was aliquotted into clean tubes, nine tubes per donor and 3.5 mL of blood per tube. Gimeracil was added to the tubes at a final concentration of 200, 400, or 600 ng/mL for each tube. In addition, in control samples, methanol was added to the blood instead of gimeracil, in order to serve as a negative control. The blood tubes sat at room temperature for 45 minutes after the addition of the gimeracil or methanol. At the appropriate times, the blood tubes were centrifuged at 2000×g for 10 minutes at room temperature to separate plasma. Plasma was aspirated immediately after centrifugation, and the plasma was dispensed into clean tubes. Plasma samples were run using standard conditions for Olympus AU680 analyzer (200 μL, spin for 15 minutes at 12,500 rpm). Measurements of 5-FU concentration were taken after plasma collection (“initial”) and 24 hours (“24 hr”) thereafter. For the 24 hr measurement, plasma was stored at room temperature during the 24 hours. As shown in Table 2 and FIG. 4, low concentrations of gimeracil in blood is also effective at inhibiting DPD-mediated degradation of 5-FU. The overall percent difference in 5-FU concentration between the samples containing 200 ng/mL and 600 ng/mL gimeracil is less than 1%.

[2] = biological target: T1, dihydropyrimidine dehydrogenase (DPD); test: Extended incubation of gimeracil in blood before plasma separation; assay type: biochemical; settings: gimeracil 1200 ng/mL; for 5-FU Concentration 24 hrs after plasma separation / 5-FU Concentration Upon plasma separation: 500 ng/mL 5-FU
Method: as §1, §2
Six tubes of blood (spray-on K2EDTA tubes, 6 mL) was drawn from each of six donors, and the blood tubes were inverted several times to mix the anti-coagulant into the blood. Blood tubes were pooled and kept separate by donor. An aliquot of each donor's blood was transferred to a new tube, and a calculated volume of 5-FU stock (at 200 ng/μL) was added to each blood sample to achieve a final concentration of 500 ng/mL 5-FU. Spiked blood samples were aliquotted to clean tubes, 4 mL of blood to each of 8 tubes per donor. Gimeracil in methanol solvent was added to the blood tubes to reach a final concentration of 1200 ng/mL. For negative control, methanol only is added to the control blood tube. Blood tubes sat at room temperature for 45 minutes, 24 hours, or 48 hours before plasma separation. At the appropriate times, the blood tubes were centrifuged at 2000×g for 10 minutes at room temperature for plasma separation. The plasma was aspirated immediately after centrifugation and dispensed into clean cryovials. For 5-FU assays, the plasma samples were run under standard conditions for the Olympus AU680 analyzer, as described above (200 μL, spin for 15 minutes at 12,500 rpm). Measurements of 5-FU concentration were taken after plasma collection and for 2 days following the initial reading. Plasma was stored at room temperature during the interval.

Oc1cc(O)c(Cl)cn1 [Gimeracil, 5-chloro-2,4-dihydroxypyridine]
overall percent difference in 5-FU concentration between samples containing 200 ng/mL and 600 ng/mL gimeracil ([1]; 500 ng/mL 5-FU spiked blood): less than 1%
5-FU concentration, Initial ([1]; gimeracil 200 ng/mL): 518.7
5-FU concentration, 24 hr ([1]; gimeracil 200 ng/mL): 523.4
5-FU concentration, Initial ([1]; gimeracil 400 ng/mL): 523.0
5-FU concentration, 24 hr ([1]; gimeracil 400 ng/mL): 521.6
5-FU concentration, Initial ([1]; gimeracil 600 ng/mL): 519.5
5-FU concentration, 24 hr ([1]; gimeracil 600 ng/mL): 523.3
inhibiting DPD-mediated degradation of 5-FU ([1]; low concentrations of gimeracil in blood (200, 400, 600 ng/mL), Table 2 and FIG. 4): effective
5-FU Concentration 24 hrs after plasma separation ([2]; 45 minute incubation in blood): 538.1 ng/mL
5-FU Concentration Upon plasma separation ([2]; 45 minute incubation in blood): 533.3 ng/mL
5-FU Concentration 24 hrs after plasma separation ([2]; 24 hours incubation in blood): 551.9 ng/mL
5-FU Concentration Upon plasma separation ([2]; 24 hours incubation in blood): 551.8 ng/mL
5-FU Concentration 24 hrs after plasma separation ([2]; 48 hours incubation in blood): 578.4 ng/mL
5-FU Concentration Upon plasma separation ([2]; 48 hours incubation in blood): 581.3 ng/mL
effect of keeping gimeracil in blood without plasma separation for a longer time ([2]; 24 or 48 hours in blood (FIG. 5)): may cause 5-FU concentration to artificially increase

Reference: patent US8440442B2, “Method of assaying 5-FU” (Myriad Genetics, Inc, priority 2009, dated 2013)
